According to patent EP2826473A1, “NOVEL USE OF PATCHOULOL” (Chengdu Huasun Group Inc., Ltd., priority 2012, dated 2013):
Converted amounts (≈) assume the structure as drawn. Read-outs that look alike come from different tables or passages of the source.

Assays:
[1] = tested on: Klebsiella pneumonia; experiment: in vitro bacteriostatic activity, agar dilution MIC, quality control strain and summary; assay type: cell-based; settings: Klebsiella pneumoniae
[2] = tested on: Staphylococcus wameri; experiment: in vitro bacteriostatic activity, agar dilution MIC; assay type: cell-based
[3] = tested on: Megasphaera elsdenii; experiment: as above; assay type: cell-based
[4] = tested on: Methicillin-resistant Staphylococcus aureus ATCC 43300; experiment: in vivo protection of model mice infected with methicillin-resistant Staphylococcus aureus; set-up: species or system KM mice; settings: intraperitoneal injection once a day, within 14 days; for Survival number: 10 animals
Experimental: Tested strains' virulence assay: Methicillin-resistant Staphylococcus aureus was cultured in incubator at 37°C to reach exponential phase of growth, and then diluted with normal saline to obtain different gradient concentrations of bacterial liquid. Different concentrations of bacterial liquid were taken and mixed with equivalent 10% gastric mucin. Bacterial liquid was administrated to mice at 0.5 ml/20 g by intraperitoneal injection, and 5% gastric mucin was used as control. Under a premise of no control mice death, the death rate of mice within 14 days was recorded, and the minimum bacterial volumes leading to death of whole mice were measured, i.e. the minimum lethal dose (MLD) of bacterial liquid.
Pretesting of effective dose in vivo: Infection model mice infected by Methicillin-resistant Staphylococcus aureus were randomly divided into a few of groups (four mice per group), and a graded dose of each bacterial liquid was separately administrated to mice in each test group at one time per day. Moreover, administration of test drug was done one day ahead of schedule, and toxic substances were not eliminated until 0.5 h after administration on the second day. The death status of mice within 14 days was observed, to determine the dosage used in the formal experiment.
KM mice (grade SPF), half male and half female, weighing 18-22 g were randomly divided into […] groups with ten mice for each group, i.e. the group receiving vancomycin hydrochloride for injection; the groups receiving high, medium, and low doses of patchoulol; blank group; model group; and control group receiving gastric mucin. All of the mice were administrated by intraperitoneal injection once a day. The mice were administrated one day in advance and then attacked after 0.5h of administration on the second day, i.e. intraperitoneally injected with methicillin-resistant Staphylococcus aureus liquid containing 5% gastric mucin. Amongst, mice in the model group were given normal saline instead of test drug; mice in the blank group were not given drugs and attacked; mice in the gastric mucin control group were not given test drug, but only injected with 5% gastric mucin without bacteria.
The death status of mice within 14 days after injection of bacteria was observed, and its survival rate was recorded.

[5] = tested on: learning and memory ability; settings: mice, scopolamine, intragastric 80 and 40 mg/kg; cited from earlier work
[6] = tested on: Escherichia coli; experiment: in vitro bacteriostatic activity, agar dilution MIC, quality control strain and summary; assay type: cell-based
[7] = tested on: Staphylococcus auricularis; experiment: in vitro bacteriostatic activity, agar dilution MIC; assay type: cell-based
[8] = tested on: Enterococcus faecium; experiment: as above; assay type: cell-based; settings: Enterococcus faecium, read-out: MIC
[9] = tested on: influenza virus type A (H2N2); settings: in vitro; cited from earlier work
[10] = tested on: Streptococcus bovis; experiment: in vitro bacteriostatic activity, agar dilution MIC; assay type: cell-based; settings: Streptococcus equinus; Streptococcus bovis 12-3
[11] = tested on: methicillin-resistant Staphylococcus aureus ATCC 43300; experiment: prevention of bacterial infection, colony count on patchoulol-coated tubes; settings: cultured 7 days at 37°C
[12] = tested on: Staphylococcus epidermidis MSSE; experiment: in vitro bacteriostatic activity, agar dilution MIC; assay type: cell-based; settings: Staphylococcus epidermidis, read-out: MIC
[13] = mouse, in vivo, po; cited from earlier work
[14] = tested on: Staphylococcus aureus ATCC 25923; experiment: prevention of bacterial infection, colony count on patchoulol-coated tubes; settings: cultured 7 days at 37°C
[15] = tested on: Enterobacter cloacae; experiment: in vitro bacteriostatic activity, agar dilution MIC; assay type: cell-based
[16] = tested on: humoral immunity and mononuclear phagocyte functions; settings: intragastric 40 and 80 mg/(kg·d) for successive 7 days; cited from earlier work
[17] = tested on: Streptococcus pneumoniae; experiment: in vitro bacteriostatic activity, agar dilution MIC; assay type: cell-based
[18] = tested on: Proteus vulgaris; experiment: as above; assay type: cell-based; settings: Proteus vulgaris 12-1
[19] = tested on: termites; settings: in vivo; cited from earlier work
[20] = tested on: influenza virus A/FM/1/47 (H1N1); settings: intragastric 40 and 80 mg/kg for successive 7 days; cited from earlier work
[21] = 400, 200, 100 and 50 µg/ml, compared with 0 µg/ml
[22] = patchoulol on intraductal membranes more than or equal to 600 µg/ml

## C[C@H]1CC[C@@]2(O)C(C)(C)[C@@H]3CC[C@@]2(C)[C@H]1C3 (stereo in doubt) [PC, (1R,4S,4aS,6R,8aS)-octahydro-4,8a,9,9-tetramethyl-1,6-methanonaphthalen-1(2H)-ol]
[1]; ATCC700603, Klebsiella pneumonia ATCC 700603, read-out: MIC
  MIC: > 768 µg/mL
[1]; summary, Klebsiella pneumonia ESBLs^-/ESBLs^+, read-out: MIC values
  MIC: ≥ 768 µg/mL
[2]
  MIC: 50 µg/mL (≈ 225 µM)
[3]; Megasphaera elsdenii 12-1
  MIC: 50 µg/mL (≈ 225 µM)
[3]; Megasphaera elsdenii 12-2
  MIC: 25 µg/mL (≈ 112 µM)
[3]; Megasphaera elsdenii 12-3
  MIC: 50 µg/mL (≈ 225 µM)
[3]; Megasphaera elsdenii 12-4
  MIC: 50 µg/mL (≈ 225 µM)
[4]; High dose 200 mg/kg
  Survival number: 10
  Survial rate (%): 100%
[4]; Low dose 50 mg/kg
  Survival number: 8
  Survial rate (%): 80%
[4]; Medium dose 100 mg/kg
  Survival number: 10
  Survial rate (%): 100%
[5]
  learning and memory ability: enhance learning and memory ability
[6]; ATCC25922, Escherichia coli ATCC 25922, read-out: MIC
  MIC: 768 µg/mL (≈ 3450 µM)
[6]; summary, Escherichia coli ESBLs /ESBLs^+, read-out: MIC values
  MIC: ≥ 768 µg/mL
[7]; Staphylococcus auricularis (first line, r19)
  MIC: 25 µg/mL (≈ 112 µM)
[7]; Staphylococcus auricularis (second line, r20)
  MIC: 50 µg/mL (≈ 225 µM)
[8]; ATCC33186, Enterococcus faecium ATCC 33186
  MIC: 128 µg/mL (≈ 576 µM)
[8]; Enterococcus faecium 12-7
  MIC: 64 µg/mL (≈ 288 µM)
[8]; Enterococcus faecium 12-8
  MIC: 64 µg/mL (≈ 288 µM)
[8]; Enterococcus faecium 12-9
  MIC: 64 µg/mL (≈ 288 µM)
[8]; Enterococcus faecium 12-10
  MIC: 32 µg/mL (≈ 144 µM)
[8]; Enterococcus faecium 12-11
  MIC: 32 µg/mL (≈ 144 µM)
[8]; Enterococcus faecium 12-12
  MIC: 64 µg/mL (≈ 288 µM)
[8]; Enterococcus faecium 12-13
  MIC: 64 µg/mL (≈ 288 µM)
[8]; Enterococcus faecium 12-14
  MIC: 64 µg/mL (≈ 288 µM)
[8]; Enterococcus faecium 12-15
  MIC: 32 µg/mL (≈ 144 µM)
[8]; Enterococcus faecium 12-16
  MIC: 32 µg/mL (≈ 144 µM)
[9]
  IC50: 4.03 ± 0.23 µM
[10]
  MIC: 50 µg/mL (≈ 225 µM)
[11]; [21]
  bacterial colony numbers: decrease
[11]; [22]
  bacterial colony numbers: 0
[12]; Staphylococcus epidermidis MSSE 10-43
  MIC: 1.5 µg/mL (≈ 6.75 µM)
[12]; Staphylococcus epidermidis MSSE 10-44
  MIC: 1.5 µg/mL (≈ 6.75 µM)
[12]; Staphylococcus epidermidis MSSE 12-11
  MIC: 32 µg/mL (≈ 144 µM)
[12]; Staphylococcus epidermidis MSSE 12-12
  MIC: 32 µg/mL (≈ 144 µM)
[12]; Staphylococcus epidermidis MSSE 12-13
  MIC: 64 µg/mL (≈ 288 µM)
[12]; Staphylococcus epidermidis MSSE 12-14
  MIC: 64 µg/mL (≈ 288 µM)
[12]; Staphylococcus epidermidis MSSE 12-15
  MIC: 64 µg/mL (≈ 288 µM)
[12]; Staphylococcus epidermidis MSSE 12-16
  MIC: 32 µg/mL (≈ 144 µM)
[12]; Staphylococcus epidermidis MSSE 12-17
  MIC: 32 µg/mL (≈ 144 µM)
[12]; Staphylococcus epidermidis MSSE 12-18
  MIC: 32 µg/mL (≈ 144 µM)
[12]; Staphylococcus epidermidis MSSE 12-19
  MIC: 32 µg/mL (≈ 144 µM)
[12]; Staphylococcus epidermidis MSSE 12-20
  MIC: 64 µg/mL (≈ 288 µM)
[13]
  maximum tolerated dose: less than 12.5 g/kg
[14]; [21]
  bacterial colony numbers: decrease
[14]; [22]
  bacterial colony numbers: 0
[15]; Enterobacter cloacae 12-1, read-out: MIC
  MIC: 50 µg/mL (≈ 225 µM)
[15]; Enterobacter cloacae 12-2
  MIC: 50 µg/mL (≈ 225 µM)
[16]
  thymus gland index, spleen index, sanguinin content, and clearance index: effectively improve
[17]; ATCC49619, Streptococcus pneumonia ATCC 49619
  MIC: 200 µg/mL (≈ 899 µM)
[17]; Streptococcus pneumonia 12-6
  MIC: 100 µg/mL (≈ 450 µM)
[17]; Streptococcus pneumonia 12-7
  MIC: 200 µg/mL (≈ 899 µM)
[17]; Streptococcus pneumonia 12-8
  MIC: 100 µg/mL (≈ 450 µM)
[17]; Streptococcus pneumonia 12-9
  MIC: 100 µg/mL (≈ 450 µM)
[17]; Streptococcus pneumonia 12-10
  MIC: 200 µg/mL (≈ 899 µM)
[17]; Streptococcus pneumoniae 12-1
  MIC: 200 µg/mL (≈ 899 µM)
[17]; Streptococcus pneumoniae 12-2
  MIC: 100 µg/mL (≈ 450 µM)
[17]; Streptococcus pneumoniae 12-3
  MIC: 200 µg/mL (≈ 899 µM)
[17]; Streptococcus pneumoniae 12-4
  MIC: 200 µg/mL (≈ 899 µM)
[17]; Streptococcus pneumoniae 12-5
  MIC: 100 µg/mL (≈ 450 µM)
[18]
  MIC: 100 µg/mL (≈ 450 µM)
[19]
  effect on termites: obviously toxic and removal effect
[20]
  survival rate of nonlethal and lethal model mice: obviously improve the survival rate
